In patent US20100184767A1, “SUBSTITUTED OXAZOLIDINONES AND USE THEREOF” (priority 2007, published 2010) one finds IC50 data, which are given here for four molecules.

human factor Xa (FXa), sequence (P00742 235-488 limits assumed): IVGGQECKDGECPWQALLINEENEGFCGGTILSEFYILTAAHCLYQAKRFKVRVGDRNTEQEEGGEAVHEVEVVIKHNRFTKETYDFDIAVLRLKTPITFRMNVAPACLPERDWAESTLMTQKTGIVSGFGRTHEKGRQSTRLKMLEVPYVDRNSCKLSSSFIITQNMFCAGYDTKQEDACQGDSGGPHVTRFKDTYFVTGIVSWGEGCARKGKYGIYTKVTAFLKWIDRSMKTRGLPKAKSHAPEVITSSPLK
human factor Xa (FXa), sequence (P00742 41-179 partner limits assumed): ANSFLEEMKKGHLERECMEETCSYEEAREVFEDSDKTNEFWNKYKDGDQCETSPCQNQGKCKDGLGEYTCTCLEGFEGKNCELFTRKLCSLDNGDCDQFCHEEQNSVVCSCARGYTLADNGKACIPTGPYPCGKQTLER

The experiment concerns the target human factor Xa (FXa) (Homo sapiens, UniProt P00742). Briefly: Factor Xa inhibition, fluorogenic assay. The class given is biochemical. The following applies: fluorogenic substrate Boc-Ile-Glu-Gly-Arg-AMC, human FXa 1.3 nmol/l, pH 7.4, 22° C. On the procedure: The enzymatic activity of human factor Xa (FXa) is measured using the conversion of a fluorogenic substrate specific for FXa. FXa cleaves aminomethylcoumarin, whose fluorescence is measured, from the peptidic substrate. The determinations are carried out in microtitre plates.
Substances to be tested, in various concentrations, are dissolved in dimethyl sulphoxide and incubated for 15 min at 22° C. with human FXa (1.3 nmol/l dissolved in 50 mmol/l of Tris buffer [C,C,C-tris(hydroxymethyl)aminomethane], 100 mmol/l NaCl, 0.1% BSA [bovine serum albumin], pH 7.4). The fluorogenic substrate (5 μmol/l of Boc-Ile-Glu-Gly-Arg-AMC from Bachem) is then added. After an incubation time of 30 min, the sample is excited at a wavelength of 360 nm, and the emission at 460 nm is measured. The measured emissions of the test batches with test substance are compared to the control batches without test substance (only dimethyl sulphoxide instead of test substance in dimethyl sulphoxide), and IC50 values are calculated from the concentration/activity relationships.
In general, IC50 refers to the concentration that inhibits the measured activity by half. High values mean weaker potency, low ones greater potency. The molecule `O=C(NC[C@H]1CN(c2ccc(N3CCOCC3=O)cc2Cl)C(=O)O1)c1ccc(Cl)s1` [Example 12, 5-Chloro-N-({(5S)-3-[2-chloro-4-(3-oxomorpholin-4-yl)phenyl]-2-oxo-1,3-oxazolidin-5-yl}methyl)thiophene-2-carboxamide] displayed an IC50 of 1.8 nM.

`O=C(NC[C@H]1CN(c2ccc(N3CCCCC3=O)cc2F)C(=O)O1)c1ccc(Cl)s1` [Example 11, 5-Chloro-N-({(5S)-3-[2-fluoro-4-(2-oxopiperidin-1-yl)phenyl]-2-oxo-1,3-oxazolidin-5-yl}methyl)thiophene-2-carboxamide] registered an IC50 of 2.2 nM.

In turn, `O=C(NC[C@H]1CN(c2ccc(N3CCOCC3=O)cc2F)C(=O)O1)c1ccc(Cl)s1` [Example 1, 5-Chloro-N-({(5S)-3-[2-fluoro-4-(3-oxomorpholin-4-yl)phenyl]-2-oxo-1,3-oxazolidin-5-yl}methyl)thiophene-2-carboxamide] registered an IC50 of 0.9 nM.

`O=C(NC[C@H]1CN(c2ccc(-n3cccc(CO)c3=O)cc2F)C(=O)O1)c1ccc(Cl)s1` [Example 22, 5-Chloro-N-{[(5S)-3-{2-fluoro-4-[3-(hydroxymethyl)-2-oxopyridin-1(2H)-yl]phenyl}-2-oxo-1,3-oxazolidin-5-yl]methyl}thiophene-2-carboxamide] had an IC50 of 0.9 nM.
